These are literature values, as cited in patent publication US20060019984A1, “Treatment of diseases with alpha-7nACh receptor full agonists” (Pfizer Inc, priority 2003, published 2006).

One data set has as its target α7 nAChR (Homo sapiens, UniProt P36544). The settings on record: general statement, no method or value given.
In the next data set the target is T1, 5HT3R (Homo sapiens, UniProt P46098).
T1 sequence (P46098 24-478): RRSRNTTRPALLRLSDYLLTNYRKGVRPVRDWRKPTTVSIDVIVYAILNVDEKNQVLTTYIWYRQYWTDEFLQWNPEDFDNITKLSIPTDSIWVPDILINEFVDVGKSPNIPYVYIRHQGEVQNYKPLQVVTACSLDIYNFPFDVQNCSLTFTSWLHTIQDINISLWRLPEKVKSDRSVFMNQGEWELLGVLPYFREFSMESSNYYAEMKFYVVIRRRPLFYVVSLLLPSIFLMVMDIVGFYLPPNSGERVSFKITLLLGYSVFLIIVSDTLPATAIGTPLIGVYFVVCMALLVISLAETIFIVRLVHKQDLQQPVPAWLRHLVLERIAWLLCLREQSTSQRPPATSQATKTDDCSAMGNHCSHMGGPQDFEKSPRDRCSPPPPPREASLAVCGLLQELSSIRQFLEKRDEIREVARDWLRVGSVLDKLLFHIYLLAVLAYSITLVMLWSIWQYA
Particulars: general statement, no method or value given.

α7 nAChR, sequence (P36544 23-502): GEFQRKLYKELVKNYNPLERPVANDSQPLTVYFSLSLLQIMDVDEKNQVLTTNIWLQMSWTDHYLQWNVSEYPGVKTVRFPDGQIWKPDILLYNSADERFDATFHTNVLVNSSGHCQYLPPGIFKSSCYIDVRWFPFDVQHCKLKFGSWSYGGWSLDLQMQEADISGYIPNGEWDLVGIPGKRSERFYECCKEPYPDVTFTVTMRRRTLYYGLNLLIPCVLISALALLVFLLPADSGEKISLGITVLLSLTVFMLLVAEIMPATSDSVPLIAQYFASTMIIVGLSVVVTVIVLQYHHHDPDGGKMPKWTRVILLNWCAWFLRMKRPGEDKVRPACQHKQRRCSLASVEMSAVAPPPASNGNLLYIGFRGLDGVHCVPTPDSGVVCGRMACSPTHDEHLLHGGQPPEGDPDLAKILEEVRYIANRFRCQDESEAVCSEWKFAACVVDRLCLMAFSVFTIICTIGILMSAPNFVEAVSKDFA

For `Cc1nccn1CC1CCc2c(c3ccccc3n2C)C1=O` (centres unmarked) [Ondansetron], the “activity at the α7 nAChR” value on α7 nAChR is recorded as “little activity”. In the case of `COc1ccc(/C=C2\CCCN=C2c2cccnc2)c(OC)c1` [GTS-21], the “activity at the 5HT3R” value at 5HT3R was “little activity”.
